In patent US20230382865A1, “HISTONE DEMETHYLASE 5 INHIBITORS AND USES THEREOF” (DANA-FARBER CANCER INSTITUTE, INC., priority 2018, published 2023):
Several values for one entry are separate records, joined by “and”; a condition that tells them apart may be missing. Equal entries are not always repeated.

Legend:
[1] = tested on: luciferized molp8 cells; experiment: In vivo mouse study, bioluminescence imaging (BLI) of luciferized molp8 cells; set-up: species or system Mice; reference not given here; conditions: one individual mouse (cage, EP)
Method: Mice were injected intravenously with luciferized molp8 cells. Half million cells per mice. After 1 week, the tumor was observed using bioluminescence imaging (BLI). The normalized total flux was measured over 17 days (FIG. 12; Table 5) Mice were randomized into control and treatment. Treatment lasted for 21 days. Animals with 15% weight loss was terminated.

[2] = tested on: MYC target genes in MM.1S cells; experiment: Gene expression profile by RNA-seq with gene set enrichment analysis in MM.1S cells; assay type: cell-based, human; conditions: RNA-seq after treatment in MM.1S cells
Source text: To clarify the molecular mechanism whereby KDM5A mediates MM cell growth, the gene expression profile using RNA-seq after the treatment with pck82 in MM.1S cells was examined.

[3] = tested on: H3K4me3 mark; experiment: ChIP-seq analysis of H3K4me3 mark; assay type: cell-based
[4] = biological target: KDM5B (Homo sapiens, UniProt Q9UGL1); experiment: KDM5B alphascreen activity assay; assay type: biochemical; conditions: Table 1, KDM5B alphascreen activity assay
KDM5B, sequence (Q9UGL1 whole entry): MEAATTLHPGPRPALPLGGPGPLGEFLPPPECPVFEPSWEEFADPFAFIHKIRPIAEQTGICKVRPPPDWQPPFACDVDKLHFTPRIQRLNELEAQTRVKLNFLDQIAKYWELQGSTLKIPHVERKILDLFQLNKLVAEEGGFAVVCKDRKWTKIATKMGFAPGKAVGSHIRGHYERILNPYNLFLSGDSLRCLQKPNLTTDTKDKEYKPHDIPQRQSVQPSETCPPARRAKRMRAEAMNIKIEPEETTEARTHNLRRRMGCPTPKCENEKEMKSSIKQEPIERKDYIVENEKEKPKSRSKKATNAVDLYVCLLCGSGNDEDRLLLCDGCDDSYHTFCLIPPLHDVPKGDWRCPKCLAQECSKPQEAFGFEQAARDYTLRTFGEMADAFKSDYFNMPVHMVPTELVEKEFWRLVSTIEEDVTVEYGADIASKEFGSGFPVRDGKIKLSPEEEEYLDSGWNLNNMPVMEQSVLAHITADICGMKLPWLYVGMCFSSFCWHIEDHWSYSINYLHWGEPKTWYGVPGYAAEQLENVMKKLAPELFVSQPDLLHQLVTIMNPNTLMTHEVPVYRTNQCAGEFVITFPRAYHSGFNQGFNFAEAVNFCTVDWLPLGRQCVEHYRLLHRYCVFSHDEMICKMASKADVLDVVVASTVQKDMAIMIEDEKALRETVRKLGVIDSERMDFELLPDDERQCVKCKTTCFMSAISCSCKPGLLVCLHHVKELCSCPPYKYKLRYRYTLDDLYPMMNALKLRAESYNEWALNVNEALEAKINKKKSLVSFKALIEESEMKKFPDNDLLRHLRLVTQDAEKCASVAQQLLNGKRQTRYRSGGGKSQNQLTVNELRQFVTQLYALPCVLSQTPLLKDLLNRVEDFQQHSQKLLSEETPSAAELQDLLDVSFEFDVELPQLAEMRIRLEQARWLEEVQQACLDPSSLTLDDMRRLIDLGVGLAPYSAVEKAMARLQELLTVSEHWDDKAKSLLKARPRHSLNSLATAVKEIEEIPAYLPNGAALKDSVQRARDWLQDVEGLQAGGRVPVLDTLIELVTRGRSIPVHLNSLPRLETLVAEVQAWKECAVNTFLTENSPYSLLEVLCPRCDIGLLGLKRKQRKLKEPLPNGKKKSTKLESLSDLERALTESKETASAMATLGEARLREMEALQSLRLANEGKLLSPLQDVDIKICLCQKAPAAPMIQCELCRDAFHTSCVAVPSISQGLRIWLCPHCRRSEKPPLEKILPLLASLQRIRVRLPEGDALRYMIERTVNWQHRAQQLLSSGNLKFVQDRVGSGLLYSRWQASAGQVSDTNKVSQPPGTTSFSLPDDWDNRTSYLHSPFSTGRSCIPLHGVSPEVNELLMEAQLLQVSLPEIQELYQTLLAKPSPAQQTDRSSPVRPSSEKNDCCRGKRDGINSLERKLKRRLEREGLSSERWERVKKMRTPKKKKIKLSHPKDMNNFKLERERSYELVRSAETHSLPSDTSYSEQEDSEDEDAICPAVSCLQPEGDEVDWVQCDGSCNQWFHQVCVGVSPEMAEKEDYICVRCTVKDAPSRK
Method: All subsequent steps were carried out in assay buffer (50 mM HEPES, pH 7.5, 0.1% (wt/vol) BSA and 0.01% (vol/vol) Tween-20). […] The final concentration of DMSO was 1%. […] Data were normalized to the (no-enzyme) control, and the IC50 values were determined via nonlinear regression curve fit using GraphPad Prism 7.

For CCN(CCN(C)C)C(=O)CNCc1cc(C(=O)Oc2ccc(OC(C)C)cc2OC(C)C)ccn1 [PCK82], the “Normalized total flux from BLI imaging” value ([1]; Day 0) was 1, the “Normalized total flux from BLI imaging” value ([1]; Day 3) was 3.764 and 4.5 and 4.255 and 3.625 and 2.035 and 2.296 and 3.238 and 0.2149 and 0.3339 and the “Normalized total flux from BLI imaging” value ([1]; Day 7) was 0.5646 and 9.722 and 8.546 and 8.656 and 13.51 and 1.677 and 8.169 and 0.2301 and 39.37. For the same compound, the “Normalized total flux from BLI imaging” value ([1]; Day 10) was 6.63 and 19.33 and 0.422 and 44.375 and 23.38 and 25.97 and 24.97 and 1.029 and 6.22, the “Normalized total flux from BLI imaging” value ([1]; Day 14) was 191.7 and 165.6 and 135.1 and 93.75 and 380.3 and 314.2 and 275.1 and 75.66 and 5.654 and the “Normalized total flux from BLI imaging” value ([1]; Day 17) was 306.3 and 4.861 and 358.2 and 465.625 and 258.8 and 133.2 and 277.2 and 359 and 565.6. For the same compound, the “Normalized total flux from BLI imaging” value ([1]; Day 21) was 45 and 3.404 and 435.5 and 58.66 and 1309 and 1224 and 847.4 and 121.6 and 1078, the “expression of MYC target genes (gene set enrichment analysis)” value [2] was “decreased expression of MYC target genes” and the “H3K4me3 mark, global” value ([3]; ChIP-seq after treatment) was “globally increased H3K4me3 mark”. The “H3K4me3 mark at the loci of MYC and its targets” value ([3]; ChIP-seq, targets whose expression is down-regulated after treatment) was “did not increase this mark”.

For CC(C)c1c(-c2ccccc2)[nH]c2c(C#N)cnn2c1=O [CPI455], the IC50 [4] was 7.92 µM.
